# According to patent US11001572B2, “Pyrimidine derivative, method for preparing same and use thereof in medicine” (Zhejiang Hisun Pharmaceutical Co., Ltd., priority 2016, dated 2021):
# Legend:
# [1] = Body weight and weight loss rate of Huh7 tumor-bearing mice during administration; type: in vivo, BALB/c nude mice; conditions: 25 mg/kg (IP, bid), 50 mg/kg (IP, bid) and 300 mg/kg (PO, bid); within 22 days
# Experimental: (§1) Each group of animals was administrated (intraperitoneal injection (ip) or oral administration (po)) a test substance twice a day (bid) at a fix time per day according to the body weight of the animals. The first dose was administered on the day of grouping ([…]), and continued for 22 days, the body weight of the animals was recorded daily.
# The calculation formula for the weight loss rate of animals is (see FIG. 3 for the results): Weight loss rate of animals=100%×(BWinitial−BWt)/BWinitial
# wherein, BWt represents the body weight of the animal at each measurement during administration; BWinitial represents the body weight of the animal at the time of grouping administration.
# [2] = test system: Huh7 tumor-bearing BALB/c nude mice xenografts; assay: Growth inhibition of Huh7 xenografts in BALB/c nude mice; type: in vivo; conditions: 25 mg/kg IP, bid
# Experimental: On day 0, Huh7 cells were cultured in DMEM medium containing 10% of fetal bovine serum, 100 U of penicillin, and 100 μg/mL of streptomycin. And cultured in an incubator of 37° C., 5% CO2.
# Each mouse was inoculated subcutaneously in the right axilla with 150 μL of cell suspension (5.0×10^6 cells/mouse) under sterile conditions. On day 12 after inoculation, when the tumor grew to a volume of 200-300 mm^3, mice with similar tumor volume and good shape were selected (the shape was as single spherical as possible, no irregular shape or multiple tumors gathered together) and divided into 5 groups, each group had 9 mice.
# as §1
# The formation of tumor in the inoculated part of each group of animals was observed. The long diameter (Y) and short diameter (X) of the tumor nodules were measured twice a week using vernier calipers and calculated according to the following formula: Volume of tumor nodules(V):V=(X^2Y)/2.
# Evaluation index of antitumor activity: tumor growth inhibition rate TGI (%), relative tumor proliferation rate T/C (%).
# The relative tumor volume (RTV) is calculated as: RTV=100×TVt/TVinitial
# The calculation formula for the relative tumor proliferation rate (% T/C) is: % T/C=100%×(RTVT/RTVC)
SMILES,body weight change [1],Tumor growth inhibition rate (TGI %) ([2]; Day 16 after inoculation) [%],Tumor growth inhibition rate (TGI %) ([2]; Day 20 after inoculation) [%],Tumor growth inhibition rate (TGI %) ([2]; Day 23 after inoculation) [%],Tumor growth inhibition rate (TGI %) ([2]; Day 27 after inoculation) [%],Tumor growth inhibition rate (TGI %) ([2]; Day 30 after inoculation) [%],Tumor growth inhibition rate (TGI %) ([2]; Day 34 after inoculation) [%],Tumor weight inhibition rate (%) ([2]; end of the experiment)
"C=CC(=O)Nc1cc(N2CCN(CC)C3(CC3)C2)ccc1Nc1cc(N(C)C(=O)Nc2c(Cl)c(OC)cc(OC)c2Cl)ncn1 [Example 5, N-(2-((6-(3-(2,6-Dichloro-3,5-dimethoxyphenyl)-1-methylureido)pyrimidin-4-yl)amino)-5-(4-ethyl-4,7-diazaspiro[2.5]octan-7-yl)phenyl)acrylamide]",no significant body weight change,–,–,–,–,–,–,–
C=CC(=O)Nc1cc(N2CCN(CC)CC2)ccc1Nc1cc(N(C)C(=O)Nc2c(Cl)c(OC)cc(OC)c2Cl)ncn1 [Example 108 of WO2015057938],–,34,21,21,29,24,16,2.2
